Data as given in patent US12329738B2, “Urolithin A and a composition containing same for external use in inflammations of various etiologies” (WARSZAWSKI UNIWERSYTET MEDYCZNY, priority 2018, dated 2025).

Tests used:
TNF-alpha [1] = assay: TNF-alpha production by THP-1 derived macrophages (ELISA); assay type: cell-based, human; conditions: 40 μM; LPS stimulation; FIG. 13
Experimental: (§1) Monocytes of the THP-1 line were cultured in RPMI 1640 medium supplemented with 10% FBS and 2 mM glutamine. For transformation of monocytes into macrophages, the cells were treated with 12.5 ng/mL PMA (phorbol 12-myristate 13-acetate) for 48 hours, then washed and incubated for 24 hours in a culture medium without PMA. After this time, urolithin A, urolithin B, iso-urolithin A and the corresponding glucuronides (GUA, GUB and GiUA) were added to the cells at a concentration of 40 μM. After 1 hour of incubation with the compounds, the cells were stimulated with LPS from Escherichia coli (10 ng/mL).
(§2) To assess the level of TNF-alpha production, the cells were incubated for 6 hours, to assess the expression of mRNA for TNF-alpha, the cells were incubated for 24 hours, to assess the effect on ERK1/2 phosphorylation, the cells were incubated for 35 minutes.
(§3) The level of TNF-alpha in the culture medium was determined using the immunochemical ELISA method (BD biosciences). Evaluation of the expression of mRNA for TNF-alpha was performed using real time PCR. After 24 hours of incubation, RNA was isolated using NucleoSpin RNA Clean-up (Macherey-Nagel). The amount and quality of isolated RNA was determined using 2100 Bioanalyzer (Agilent Technologies). The expression level of mRNA for TNF-α was determined using Brilliant II SYBR Green QPCR Kit and Aria Mx Real-Time PCR thermocycler (Agilent Technologies). The following were used as primers for TNF-alpha: forward: 5′-[…]-3′, reverse: 5′-[…]-3′. Beta-actin (ACTB) was used as the housekeeping gene; primer forward: 5′-[…]-3′, reverse: 5′-[…]-3′).
(§4) The obtained results of experiments on in vitro models were analyzed using the Statistica 13 program (StatSoft, Inc., Tulsa, OK, USA) and presented as mean values±SEM. Statistical significance was set at P≤0.05. The results with established normal distribution in the D'Agostin and Pearson test were prepared using analysis of variance (ANOVA). Parametric post-hoc analysis was performed using Dunnett's test.

[2] = tested on: Wistar rats (DNCB-induced atopic dermatitis); assay: Ear thickness (edema) in DNCB-induced atopic dermatitis rat model; assay type: in vivo
Experimental: It is similar to the indications for use of hydrocortisone, which was used as a positive control in the study. Urolitin A was obtained by synthesis according to Bialonska et al. (Bialonska et al., 2009) or purchased from Sigma-Aldrich. The ointment containing urolithin A was prepared by emulsifying the weighed substance into a solid vehicle (white petrolatum) using an unguator. Wistar rats aged 5-6 weeks (at the start of the experiment) kept under standard conditions with free access to feed and water were used for the tests. The animals were divided into 5 groups, 8 individuals in each group. To prepare 2,4-dinitrochlorobenzene (DNCB) composition inducing inflammation, DNCB was dissolved in 70% ethanol to a final concentration of 1.5% (w/v). Therapeutic composition was an ointment based on white petrolatum with 0.2% or 1.0% urolithin A added. The control ointment was white petrolatum without addition of urolithin A. The induction of chronic atopic dermatitis involved local 9-fold infiltration with 60 μl 1.5% 2,4-dinitrochlorobenzene (DNCB) on each (external and internal) surface of the right ear over 3 weeks (3 times a week). Negative control was the right ear of rats without induction inflammation. Treatment of atopic dermatitis with 0.2% or 1.0% urolithin composition and white petrolatum (control) or 1.0% hydrocortisone composition (positive control) was started eight days after sensitization—one day before the fourth application of DNCB. Ointments with appropriate for given group drug added were applied in a total volume of about 20 μl to each ear surface one day before and 6 hours after each DNCB application (for a period of 3 weeks). The negative control group consisted of rats without induced inflammation and treated with white petrolatum in a regimen analogous to the composition of urolithin A or hydrocortisone. Ear thickness was assessed using an electronic mini caliper the day before inflammation was induced (day 0) and then on days 4 and 8 prior to treatment and on days 4, 8, 12, 16, […] of therapy with urolithin A composition (on days 12, 16, 20, 24, 28 and 32 after inflammation inducing, respectively). The experimental results obtained were analyzed using the Statistica 7.1 program (StatSoft, Inc., Tulsa, OK, USA) and presented as mean values±SE. Statistical significance was set at P≤0.05. The results with established normal distribution in the D'Agostin and Pearson test were prepared using two- or three-factor analysis of variance (ANOVA). Parametric post-hoc analysis for individual time points was performed using the Bonferroni test.

[3] = tested on: Wistar rats (DNCB-induced atopic dermatitis); assay: Pruritus level (scratch reflexes) in DNCB-induced atopic dermatitis rat model; assay type: in vivo; conditions: topical ointment; urolithin A 0.2 and 1.0% (p<0.001), hydrocortisone 1% (p<0.01)
Experimental: Wistar rats aged 5-6 weeks (at the start of the experiment) kept under standard conditions with free access to feed and water were used for the tests. The animals were divided into 5 groups, 8 individuals in each group. To prepare 2,4-dinitrochlorobenzene (DNCB) composition inducing inflammation, DNCB was dissolved in 70% ethanol to a final concentration of 1.5% (w/v). Therapeutic composition was an ointment based on white petrolatum with 0.2% or 1.0% urolithin A added. The control ointment was white petrolatum without addition of urolithin A. The induction of chronic atopic dermatitis involved local 9-fold infiltration with 60 μl 1.5% 2,4-dinitrochlorobenzene (DNCB) on each (external and internal) surface of the right ear over 3 weeks (3 times a week). Negative control was the right ear of rats without induction inflammation. Treatment of atopic dermatitis with 0.2% or 1.0% urolithin composition and white petrolatum (control) or 1.0% hydrocortisone composition (positive control) was started eight days after sensitization—one day before the fourth application of DNCB. Ointments with appropriate for given group drug added were applied in a total volume of about 20 μl to each ear surface one day before and 6 hours after each DNCB application (for a period of 3 weeks). The negative control group consisted of rats without induced inflammation and treated with white petrolatum in a regimen analogous to the composition of urolithin A or hydrocortisone. Measurement of pruritus level (as measured by scratching reflexes) was evaluated as the total frequency of scratch reflexes during 10 minutes immediately after DNCB application on days 0, 4, 8, 12, 16, 20, 24, 28 and 32 of the experiment). Scratching was defined as a single or series of several reflexes of scratching with a paw directed at the site of DNCB application. The experimental results obtained were analyzed using the Statistica 7.1 program (StatSoft, Inc., Tulsa, OK, USA) and presented as mean values±SE. Statistical significance was set at P≤0.05. The results with established normal distribution in the D'Agostin and Pearson test were prepared using two- or three-factor analysis of variance (ANOVA). Parametric post-hoc analysis for individual time points was performed using the Bonferroni test.

[4] = tested on: Wistar rats (DNCB-induced atopic dermatitis); assay: Peripheral blood morphology in DNCB-induced atopic dermatitis rat model; assay type: in vivo
Experimental: Wistar rats aged 5-6 weeks (at the start of the experiment) kept under standard conditions with free access to feed and water were used for the tests. The animals were divided into 5 groups, 8 individuals in each group. To prepare 2,4-dinitrochlorobenzene (DNCB) composition inducing inflammation, DNCB was dissolved in 70% ethanol to a final concentration of 1.5% (w/v). Therapeutic composition was an ointment based on white petrolatum with 0.2% or 1.0% urolithin A added. The control ointment was white petrolatum without addition of urolithin A.
The induction of chronic atopic dermatitis involved local 9-fold infiltration with 60 μl 1.5% 2,4-dinitrochlorobenzene (DNCB) on each (external and internal) surface of the right ear over 3 weeks (3 times a week). Negative control was the right ear of rats without induction inflammation.
Treatment of atopic dermatitis with 0.2% or 1.0% urolithin composition and white petrolatum (control) or 1.0% hydrocortisone composition (positive control) was started eight days after sensitization—one day before the fourth application of DNCB. Ointments with appropriate for given group drug added were applied in a total volume of about 20 μl to each ear surface one day before and 6 hours after each DNCB application (for a period of 3 weeks). The negative control group consisted of rats without induced inflammation and treated with white petrolatum in a regimen analogous to the composition of urolithin A or hydrocortisone.
2 mL blood samples were drawn into syringes (containing heparin as an anticoagulant) from the heart under general anesthesia (isoflurane) on day 32 of the experiment. The test was conducted using the DIATRON automated hematology analyzer. Peripheral blood analysis included the assessment of morphotic elements in blood: erythrocytes, leukocytes and thrombocytes and determination of the number and percentage of different types of leukocytes—WBC as well as values of erythrocyte indicators: hemoglobin (HGB), hematocrit (HCT), mean corpuscular volume (MCV), mean corpuscular hemoglobin (MCH) and mean corpuscular hemoglobin concentration (MCHC).
The experimental results obtained were analyzed using the Statistica 7.1 program (StatSoft, Inc., Tulsa, OK, USA) and presented as mean values±SE. Statistical significance was set at P≤0.05. The results with established normal distribution in the D'Agostin and Pearson test were prepared using two- or three-factor analysis of variance (ANOVA). Parametric post-hoc analysis for individual time points was performed using the Bonferroni test.

mRNA for TNF-alpha = assay: TNF-alpha mRNA expression in THP-1 derived macrophages (real time PCR); assay type: cell-based, human; conditions: 40 μM; LPS stimulation; FIG. 14
Experimental: as §1, §2, §3, §4

ERK1/2 = ERK1/2 phosphorylation in THP-1 derived macrophages (Western blotting); assay type: cell-based, human; conditions: 40 μM; LPS 10 ng/mL, 35 min; FIG. 15
Experimental: Monocytes of the THP-1 line were cultured in RPMI 1640 medium supplemented with 10% FBS and 2 mM glutamine. For transformation of monocytes into macrophages, the cells were treated with 12.5 ng/mL PMA (phorbol 12-myristate 13-acetate) for 48 hours, then washed and incubated for 24 hours in a culture medium without PMA. After this time, urolithin A, urolithin B, iso-urolithin A and the corresponding glucuronides (GUA, GUB and GiUA) were added to the cells at a concentration of 40 μM. After 1 hour of incubation with the compounds, the cells were stimulated with LPS from Escherichia coli (10 ng/mL). To assess the level of TNF-alpha production, the cells were incubated for 6 hours, to assess the expression of mRNA for TNF-alpha, the cells were incubated for 24 hours, to assess the effect on ERK1/2 phosphorylation, the cells were incubated for 35 minutes. […] The obtained results of experiments on in vitro models were analyzed using the Statistica 13 program (StatSoft, Inc., Tulsa, OK, USA) and presented as mean values±SEM. Statistical significance was set at P≤0.05. The results with established normal distribution in the D'Agostin and Pearson test were prepared using analysis of variance (ANOVA). Parametric post-hoc analysis was performed using Dunnett's test.

TNF-alpha [5] = assay: TNF-alpha production by macrophages from human peripheral blood monocytes (ELISA); assay type: cell-based; conditions: 40 μM; LPS 100 ng/mL, 24 h; FIG. 16
Experimental: Monocytes were isolated from peripheral human blood by a standard method using dextran sedimentation and Ficoll Hypaque gradient centrifugation. After isolation, monocytes were suspended in RPMI 1640 medium supplemented with L-glutamine, HEPES, streptomycin, amphotericin and gentamicin, and 20% autologous serum. Cell culture was carried out under these conditions for 7 days. […] After 24h, TNF-alpha level in the medium was determined using the immunochemical ELISA method (BD biosciences). The obtained results of experiments on in vitro models were analyzed using the Statistica 13 program (StatSoft, Inc., Tulsa, OK, USA) and presented as mean values±SEM. Statistical significance was set at P≤0.05. The results with established normal distribution in the D'Agostin and Pearson test were prepared using analysis of variance (ANOVA). Parametric post-hoc analysis was performed using Dunnett's test.

[6] = day 32, 1% hydrocortisone, urolithin A 0.2 and 1%

Compound: O=C(O)[C@H]1O[C@@H](Oc2ccc3c(c2)oc(=O)c2ccc(O)cc23)[C@H](O)[C@@H](O)[C@@H]1O [GiUA, Iso-urolithin A 3-O-glucuronide]
- TNF-alpha production by THP-1 derived macrophages (TNF-alpha [1]): did not show any activity

Compound: C[C@]12CCC(=O)C=C1CC[C@@H]1[C@@H]2[C@@H](O)C[C@@]2(C)[C@H]1CC[C@]2(O)C(=O)CO [hydrocortisone]
- Time profile of anti-edema effect, urolithin A vs. hydrocortisone ([2]; initial period of therapy (up to 12 days)): greater therapeutic effectiveness
- Ear edema (ear thickness) after local therapy ([2]; topical ointment in white petrolatum, urolithin A 0.2 and 1.0%, hydrocortisone 1%, urolithin A p<0.001, hydrocortisone p<0.01): reduced
- Scratching rate (frequency of scratch reflexes) [3]: reduction in scratching rate
- WBC (leukocyte) level ([4]; 1% composition, day 32, vs petrolatum, hydrocortisone p<0.05, urolithin A p<0.01): significant reduction in WBC
- Final WBC values compared to negative control (without atopic dermatitis) ([4]; 1% hydrocortisone, urolithin A 0.2 and 1%): remained at a higher level compared to negative control groups
- MPV (fl), PDW (fl), PDWcv (%) ([4]; day 32): did not change
- RBC, HGB, HCT, MCV ([4]; day 32): no changes
- Thrombocrit (PCT %) ([4]; day 32, 1% composition, vs negative control, p<0.01): significantly higher values compared to the negative control group
- Number of thrombocytes (PLT) ([4]; day 32, 1% composition, vs negative control, p<0.05): significantly higher values compared to the negative control group
- Concentration of hemoglobin in erythrocytes (MCH and MCHC) ([4]; day 32, 1% hydrocortisone (p<0.05), urolithin A 0.2 and 1.0%): decrease in the concentration of hemoglobin in erythrocytes
- RDW parameter level ([4]; day 32, 1% hydrocortisone, p<0.05): decrease in the RDW parameter level
- Monocyte population [4, 6]: reducing the population of monocytes and neutrophils
- Neutrophil population [4, 6]: reducing the population of monocytes and neutrophils
- Lymphocyte level ([4]; day 32, 1% hydrocortisone, urolithin A 0.2 and 1%, vs petrolatum): no significant differences

Compound: O=c1oc2cc(O)ccc2c2cc(O)ccc12 [iso-urolithin A]
- TNF-alpha production by THP-1 derived macrophages (TNF-alpha [1]): stimulated the production of TNF-alpha
- TNF-alpha mRNA expression in THP-1 derived macrophages (mRNA for TNF-alpha): stimulated mRNA expression
- ERK1/2 kinase phosphorylation in THP-1 derived macrophages (ERK1/2): much less active
- Inhibition of TNF-alpha production by macrophages from human peripheral blood monocytes (TNF-alpha [5]): significantly less active

Compound: urolitin A 3-O-glucuronide and urolitin A 8-O-glucuronide [GUA]
- TNF-alpha production by THP-1 derived macrophages (TNF-alpha [1]): did not show any activity

Compound: O=C(O)[C@H]1O[C@@H](Oc2ccc3c(c2)oc(=O)c2ccccc23)[C@H](O)[C@@H](O)[C@@H]1O [GUB, urolitin B 3-O-glucuronide]
- TNF-alpha production by THP-1 derived macrophages (TNF-alpha [1]): did not show any activity

Compound: CC(=O)Oc1ccc2c(c1)oc(=O)c1ccccc12 [3-acetyl-urolithin B, reference compound]
- TNF-alpha production by THP-1 derived macrophages (TNF-alpha [1]): did not show any activity
